# Results reported in the supplement of paper PMC10307832.
# Legend:
# Assay in all cases: relative viability (nuclei count vs DMSO), 5 days (fraction); higher = more cells survive
# HCC-827 = system: HCC-827
# Method in brief: (§1)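 For relative viability, nuclei counts in treated wells were divided by those in vehicle wells. Lung cancer cell lines had been pin-tool dosed in 1536-well plates the day after seeding and cultured for 5 days, then fixed and stained in one step (final 0.05% Triton X-100, 1% formaldehyde, 1 ug/ml Hoechst) and imaged at 4×. Doses were one drug alone or a fixed anchor-drug dose plus five library-drug doses (not always all listed) in √10 steps, and values are duplicate-plate medians.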
# EMC-BAC-2 = system: EMC-BAC-2
# Method in brief: as §1
# NCI-H322M = system: NCI-H322M
# Method in brief: as §1
# NCI-H23 = system: NCI-H23
# Method in brief: as §1
# EKVX = system: EKVX
# Method in brief: as §1
# NCI-H2342 = system: NCI-H2342
# Method in brief: as §1
# PC-14 = system: PC-14
# Method in brief: as §1
# NCI-H1666 = system: NCI-H1666
# Method in brief: as §1
# EPLC-272H = system: EPLC-272H
# Method in brief: as §1
# NCI-H2405 = system: NCI-H2405
# Method in brief: as §1
# SK-LU-1 = system: SK-LU-1
# Method in brief: as §1
# NCI-H1975 = system: NCI-H1975
# Method in brief: as §1
# LCLC-103H = system: LCLC-103H
# Method in brief: as §1
# LU99A = system: LU99A
# Method in brief: as §1
# SW 1573 = system: SW 1573
# Method in brief: as §1
# RERF-LC-KJ = system: RERF-LC-KJ
# Method in brief: as §1
# NCI-H1563 = system: NCI-H1563
# Method in brief: as §1
# LXF-289 = system: LXF-289
# Method in brief: as §1
# SW 900 = system: SW 900
# Method in brief: as §1
# LK-2 = system: LK-2
# Method in brief: as §1
# NCI-H2126 = system: NCI-H2126
# Method in brief: as §1
# ChaGo-K-1 = system: ChaGo-K-1
# Method in brief: as §1
structure (smiles),measurement,setting,value
O=c1cc(N2CCOCC2)oc2c(-c3cccc4c3sc3ccccc34)cccc12 + CCNC(=O)c1noc(-c2cc(C(C)C)c(O)cc2O)c1-c1ccc(CN2CCOCC2)cc1 [Luminespib] (partner 0.01 µM),relative viability,HCC-827; first compound 0.01 µM,0.642
same,relative viability,HCC-827; first compound 0.03162 µM,0.541
same,relative viability,HCC-827; first compound 0.1 µM,0.626
same,relative viability,HCC-827; first compound 0.3162 µM,0.629
same,relative viability,HCC-827; first compound 1 µM,0.71
same,relative viability,EMC-BAC-2; first compound 0.01 µM,1.21
same,relative viability,EMC-BAC-2; first compound 0.03162 µM,1.24
same,relative viability,EMC-BAC-2; first compound 0.1 µM,1.14
same,relative viability,EMC-BAC-2; first compound 0.3162 µM,1.07
same,relative viability,EMC-BAC-2; first compound 1 µM,1.11
same,relative viability,NCI-H322M; first compound 0.01 µM,0.901
same,relative viability,NCI-H322M; first compound 0.03162 µM,0.864
same,relative viability,NCI-H322M; first compound 0.1 µM,0.889
same,relative viability,NCI-H322M; first compound 0.3162 µM,0.839
same,relative viability,NCI-H322M; first compound 1 µM,0.756
same,relative viability,NCI-H23; first compound 0.01 µM,0.194
same,relative viability,NCI-H23; first compound 0.03162 µM,0.194
same,relative viability,NCI-H23; first compound 0.3162 µM,0.239
same,relative viability,NCI-H23; first compound 1 µM,0.206
same,relative viability,EKVX; first compound 0.01 µM,0.9
same,relative viability,EKVX; first compound 0.03162 µM,0.872
same,relative viability,EKVX; first compound 0.1 µM,0.878
same,relative viability,EKVX; first compound 0.3162 µM,0.917
same,relative viability,EKVX; first compound 1 µM,0.891
same,relative viability,NCI-H2342; first compound 0.01 µM,0.667
same,relative viability,NCI-H2342; first compound 0.03162 µM,0.58
same,relative viability,NCI-H2342; first compound 0.1 µM,0.696
same,relative viability,NCI-H2342; first compound 0.3162 µM,0.586
same,relative viability,NCI-H2342; first compound 1 µM,0.742
same,relative viability,PC-14; first compound 0.03162 µM,0.151
same,relative viability,PC-14; first compound 0.3162 µM,0.197
same,relative viability,PC-14; first compound 1 µM,0.135
same,relative viability,NCI-H1666; first compound 0.01 µM,0.889
same,relative viability,NCI-H1666; first compound 0.03162 µM,1.01
same,relative viability,NCI-H1666; first compound 0.1 µM,0.995
same,relative viability,NCI-H1666; first compound 0.3162 µM,0.969
same,relative viability,NCI-H1666; first compound 1 µM,0.93
same,relative viability,EPLC-272H; first compound 0.01 µM,0.244
same,relative viability,EPLC-272H; first compound 0.03162 µM,0.449
same,relative viability,EPLC-272H; first compound 0.3162 µM,0.19
same,relative viability,EPLC-272H; first compound 1 µM,0.281
same,relative viability,NCI-H2405; first compound 0.01 µM,0.712
same,relative viability,NCI-H2405; first compound 0.03162 µM,0.571
same,relative viability,NCI-H2405; first compound 0.1 µM,0.722
same,relative viability,NCI-H2405; first compound 0.3162 µM,0.717
same,relative viability,NCI-H2405; first compound 1 µM,0.681
same,relative viability,SK-LU-1; first compound 0.01 µM,0.206
same,relative viability,SK-LU-1; first compound 0.03162 µM,0.234
same,relative viability,SK-LU-1; first compound 0.1 µM,0.201
same,relative viability,SK-LU-1; first compound 0.3162 µM,0.206
same,relative viability,SK-LU-1; first compound 1 µM,0.215
same,relative viability,NCI-H1975; first compound 0.01 µM,0.198
same,relative viability,NCI-H1975; first compound 0.03162 µM,0.242
same,relative viability,NCI-H1975; first compound 0.1 µM,0.202
same,relative viability,NCI-H1975; first compound 0.3162 µM,0.271
same,relative viability,NCI-H1975; first compound 1 µM,0.227
same,relative viability,LCLC-103H; first compound 0.01 µM,0.912
same,relative viability,LCLC-103H; first compound 0.03162 µM,1.01
same,relative viability,LCLC-103H; first compound 0.1 µM,1.02
same,relative viability,LCLC-103H; first compound 0.3162 µM,0.898
same,relative viability,LCLC-103H; first compound 1 µM,0.925
same,relative viability,LU99A; first compound 0.01 µM,0.266
same,relative viability,LU99A; first compound 0.03162 µM,0.23
same,relative viability,LU99A; first compound 0.1 µM,0.232
same,relative viability,LU99A; first compound 0.3162 µM,0.267
same,relative viability,LU99A; first compound 1 µM,0.183
same,relative viability,SW 1573; first compound 0.01 µM,0.419
same,relative viability,SW 1573; first compound 0.03162 µM,0.205
same,relative viability,SW 1573; first compound 0.1 µM,0.211
same,relative viability,SW 1573; first compound 0.3162 µM,0.735
same,relative viability,SW 1573; first compound 1 µM,0.218
same,relative viability,RERF-LC-KJ; first compound 0.01 µM,1.31
same,relative viability,RERF-LC-KJ; first compound 0.03162 µM,1.22
same,relative viability,RERF-LC-KJ; first compound 0.1 µM,1.48
same,relative viability,RERF-LC-KJ; first compound 0.3162 µM,1.07
same,relative viability,RERF-LC-KJ; first compound 1 µM,1.21
same,relative viability,NCI-H1563; first compound 0.01 µM,0.519
same,relative viability,NCI-H1563; first compound 0.03162 µM,0.552
same,relative viability,NCI-H1563; first compound 0.1 µM,0.515
same,relative viability,NCI-H1563; first compound 0.3162 µM,0.558
same,relative viability,NCI-H1563; first compound 1 µM,0.544
same,relative viability,LXF-289; first compound 0.01 µM,0.646
same,relative viability,LXF-289; first compound 0.03162 µM,0.657
same,relative viability,LXF-289; first compound 0.1 µM,0.773
same,relative viability,LXF-289; first compound 0.3162 µM,0.752
same,relative viability,LXF-289; first compound 1 µM,0.714
same,relative viability,SW 900; first compound 0.01 µM,0.203
same,relative viability,SW 900; first compound 0.03162 µM,0.186
same,relative viability,SW 900; first compound 0.1 µM,0.173
same,relative viability,SW 900; first compound 0.3162 µM,0.196
same,relative viability,SW 900; first compound 1 µM,0.176
same,relative viability,LK-2; first compound 0.01 µM,0.181
same,relative viability,LK-2; first compound 0.03162 µM,0.217
same,relative viability,LK-2; first compound 0.1 µM,0.198
same,relative viability,LK-2; first compound 0.3162 µM,0.176
same,relative viability,LK-2; first compound 1 µM,0.139
same,relative viability,NCI-H2126; first compound 0.01 µM,0.923
same,relative viability,NCI-H2126; first compound 0.03162 µM,0.893
same,relative viability,NCI-H2126; first compound 0.1 µM,0.922
same,relative viability,NCI-H2126; first compound 0.3162 µM,0.93
same,relative viability,NCI-H2126; first compound 1 µM,0.756
same,relative viability,ChaGo-K-1; first compound 0.01 µM,0.689
same,relative viability,ChaGo-K-1; first compound 0.03162 µM,0.682
same,relative viability,ChaGo-K-1; first compound 0.1 µM,0.714
same,relative viability,ChaGo-K-1; first compound 0.3162 µM,0.582
same,relative viability,ChaGo-K-1; first compound 1 µM,0.689
